Measured values taken from patent publication US20150330989A1, “METHOD AND SYSTEM FOR DIAGNOSING AND TREATING PREECLAMPSIA” (THE BRIGHAM AND WOMEN'S HOSPITAL, INC., priority 2012, published 2015).
pIC50: −log10 of the molar value.

Legend:
factor D = factor D (Homo sapiens, UniProt P00746); settings: site of action factor D; cited from earlier work
C2, classical = target: T1, C2, classical (Homo sapiens, UniProt P06681); settings: in vitro; cited from earlier work
T1 sequence (P06681 21-752): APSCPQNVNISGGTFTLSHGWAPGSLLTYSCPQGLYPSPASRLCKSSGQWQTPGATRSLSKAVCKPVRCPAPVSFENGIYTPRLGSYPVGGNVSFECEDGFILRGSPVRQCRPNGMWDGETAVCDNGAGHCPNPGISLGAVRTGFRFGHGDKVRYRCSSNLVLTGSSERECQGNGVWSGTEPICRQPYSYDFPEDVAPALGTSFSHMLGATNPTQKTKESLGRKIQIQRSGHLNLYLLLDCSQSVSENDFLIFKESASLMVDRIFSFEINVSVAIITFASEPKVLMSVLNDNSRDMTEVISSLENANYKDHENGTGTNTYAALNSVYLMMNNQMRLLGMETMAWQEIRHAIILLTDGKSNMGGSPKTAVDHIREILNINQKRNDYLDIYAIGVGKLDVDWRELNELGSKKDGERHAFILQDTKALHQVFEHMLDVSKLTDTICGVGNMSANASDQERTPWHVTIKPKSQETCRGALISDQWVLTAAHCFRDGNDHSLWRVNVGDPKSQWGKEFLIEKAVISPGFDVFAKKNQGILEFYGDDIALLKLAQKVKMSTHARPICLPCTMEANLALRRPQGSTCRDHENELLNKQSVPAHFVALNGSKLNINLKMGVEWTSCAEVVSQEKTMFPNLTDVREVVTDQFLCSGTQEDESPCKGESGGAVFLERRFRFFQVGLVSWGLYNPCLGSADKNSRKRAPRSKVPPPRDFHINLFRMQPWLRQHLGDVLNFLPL

patent ductus arteriosus = assay: NICU course of the neonate; format: in vivo, human
Protocol: The neonate was intubated at 10 min of life for respiratory support and admitted to the NICU. They were extubated the following morning after one dose of surfactant; blood cultures were negative; and head ultrasound was normal. NICU course was notable for a patent ductus arteriosus (responsive to Indomethacin) and inguinal hernia repair (day 67), after which they were discharged home in good condition. There were trace levels of Eculizumab in cord blood samples taken at delivery, thought secondary to contamination with maternal blood.

[1] = tested on: severe preeclampsia/HELLP syndrome; assay: Case report: Eculizumab treatment of a pregnant patient with severe preeclampsia/HELLP syndrome; format: in vivo, human; settings: initial course during Eculizumab treatment
C3 convertase, classical = target: T2, C3 convertase, classical (Homo sapiens, UniProt P06681); settings: in vitro; cited from earlier work
T2 sequence (P06681 244-752 limits assumed): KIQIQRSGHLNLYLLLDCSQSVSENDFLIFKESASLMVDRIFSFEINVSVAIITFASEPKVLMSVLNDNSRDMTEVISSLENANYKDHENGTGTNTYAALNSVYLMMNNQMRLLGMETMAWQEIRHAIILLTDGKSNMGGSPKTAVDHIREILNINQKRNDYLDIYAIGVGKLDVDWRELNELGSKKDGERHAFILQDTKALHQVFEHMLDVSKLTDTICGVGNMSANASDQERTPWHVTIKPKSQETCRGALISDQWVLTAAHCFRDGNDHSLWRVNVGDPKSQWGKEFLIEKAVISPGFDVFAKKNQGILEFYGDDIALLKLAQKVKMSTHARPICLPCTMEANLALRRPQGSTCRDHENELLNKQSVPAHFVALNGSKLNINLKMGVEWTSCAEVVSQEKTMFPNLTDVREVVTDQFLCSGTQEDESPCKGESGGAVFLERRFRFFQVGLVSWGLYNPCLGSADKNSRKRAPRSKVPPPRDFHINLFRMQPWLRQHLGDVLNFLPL

Sequence of factor D (P00746 26-253): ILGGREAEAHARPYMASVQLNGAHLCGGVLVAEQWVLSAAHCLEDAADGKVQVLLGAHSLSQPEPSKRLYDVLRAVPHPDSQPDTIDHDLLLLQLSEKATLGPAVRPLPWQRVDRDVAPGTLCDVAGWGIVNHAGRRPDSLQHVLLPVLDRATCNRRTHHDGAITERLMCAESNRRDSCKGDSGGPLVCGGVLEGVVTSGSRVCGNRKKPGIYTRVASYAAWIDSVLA

With `N=C(N)c1cc2ccc(OC(=O)c3cccs3)cc2s1` [BCX-1470] as the compound, how does the pIC50 (factor D) read?
Its pIC50 is 7.02.

With `CC1(C)[C@@H](O[C@H]2O[C@H](C(=O)O)[C@@H](O)[C@H](O)[C@H]2O[C@@H]2O[C@H](C(=O)O)[C@@H](O)[C@H](O)[C@H]2O)CC[C@]2(C)[C@H]3C(=O)C=C4[C@@H]5C[C@@](C)(C(=O)O)CC[C@]5(C)CC[C@@]4(C)[C@]3(C)CC[C@@H]12` [Glycyrrhizin] as the compound, how does the pIC50 (C2, classical) read?
Its pIC50 is 4.46.

With `COc1ccc2c(c1)c(CC(=O)O)c(C)n2C(=O)c1ccc(Cl)cc1` [Indomethacin] as the compound, how does the “patent ductus arteriosus, response” value (patent ductus arteriosus) read?
The value was “responsive”.

For `CC(CCc1ccccc1)NCC(O)c1ccc(O)c(C(N)=O)c1` (stereo not drawn) [Labetalol], which “escalating blood pressures, response” value [1] is on record?
Its value is “responded”.

Which “pulmonary edema, response” value [1] does the source give for `NS(=O)(=O)c1cc(C(=O)O)c(NCc2ccco2)cc1Cl` [Lasix] here?
The value was “responded”.

With `O=C(/C=C/c1ccc(O)c(O)c1)O[C@H](Cc1ccc(O)c(O)c1)C(=O)O` [Rosmarinic acid] as the compound, how does the pIC50 (C3 convertase, classical) read?
The pIC50 was 5.00 to 5.30.
